Data as given in patent publication US20120295291A1, “Method for Determining the Risk of Clopidogrel Resistance” (SIEMENS HEALTHCARE DIAGNOSTICS PRODUCTS GMBH, priority 2011, published 2012).
Read-outs that look alike come from different tables or passages of the source.

Test system: thrombocytes (thrombocyte activity; ADP receptor P2Y12)
Conditions: for patients studied clopidogrel-resistant (closure time below cut-off after intake of clopidogrel): INNOVANCE PFA P2Y cartridges, after 300 or 600 mg clopidogrel loading dose, cut-off 106 s

In the case of `COC(=O)[C@H](c1ccccc1Cl)N1CCc2sccc2C1` [clopidogrel, methyl (S)-α-(2-chlorophenyl)-6,7-dihydrothieno[3,2-c]pyridine-5(4H)-acetate], the “relative risk of patient not responding to clopidogrel” value (Col/EPI closure time prior to intake 140 s (3.2% citrated blood), response by INNOVANCE PFA P2Y after intake in 3.8% citrated whole blood, p<0.0001) is reported as 2.64, the “relative risk of patient not responding to clopidogrel” value (Col/EPI closure time prior to intake ≦140 s vs >140 s, 3.2% citrated whole blood, p<0.004) is reported as 1.78 and the “patients studied clopidogrel-resistant (closure time below cut-off after intake of clopidogrel)” value (3.2% citrated whole blood) is reported as 45.8%. The “patients studied clopidogrel-resistant (closure time below cut-off after intake of clopidogrel)” value (3.8% citrated whole blood) was 37.5%, the “relative risk of patient not responding to clopidogrel” value (INNOVANCE PFA P2Y closure time prior to intake ≦59 s vs >59 s, 3.8% citrated whole blood, p<0.002) was 1.98 and the “relative risk of patient not responding to clopidogrel” value (INNOVANCE PFA P2Y closure time prior to intake ≦60 s vs >60 s, 3.2% citrated whole blood, p<0.02) was 1.61. For the same compound, the “relative risk of patient not responding to clopidogrel” value (patients undergoing ASA therapy, Col/ADP closure time prior to intake ≦91 s vs >91 s, 3.2% citrated whole blood, p=0.06) was 1.47.
